Measured values as given in ChEMBL document CHEMBL4359901, “Cyclic enaminone as new chemotype for selective cyclooxygenase-2 inhibitory, anti-inflammatory, and analgesic activities” (Eur J Med Chem, 2019).

How the values were obtained:
[1] = biological target: Prostaglandin G/H synthase 1 (Ovis aries) (UniProt P05979); test: Inhibition of ovine COX1 assessed as reduction in PGF2alpha at 10 uM incubated for 2 mins using arachidonic acid as substrate by ELISA relative to control
[2] = biological target: Prostaglandin G/H synthase 2 (Homo sapiens) (UniProt P35354); test: Inhibition of recombinant human COX2 assessed as reduction in PGF2alpha at 10 uM incubated for 2 mins using arachidonic acid as substrate by ELISA relative to control

Structure (SMILES)	inhibition [1]	inhibition [2]
CC(=O)c1ccc(NC2=CC(=O)CCC2)cc1	65.5%	41.9%
O=C1C=C(Nc2cc(Cl)ccc2F)CCC1	32%	47.4%
O=C1C=C(Nc2ccc([N+](=O)[O-])cc2)CCC1	31%	24.2%
O=C1C=C(NCc2ccccc2)CCC1	24.2%	40.5%
CC1(C)CC(=O)C=C(NCc2ccco2)C1	28.6%	43.9%
O=C1C=C(NCc2ccco2)CC1	30.5%	41.4%

Continued, values first:

inhibition [1]	inhibition [2]	Structure (SMILES)
10.7%	36.6%	COc1ccc(NC2=CC(=O)CCC2)cc1
46.5%	47.1%	N#Cc1ccc(NC2=CC(=O)CCC2)cc1
34%	44.5%	CC1(C)CC(=O)C=C(Nc2ccc(F)cc2)C1
12.8%	27.8%	CSc1ccc(NC2=CC(=O)CCC2)cc1
43.5%	22.2%	O=C1C=C(Nc2ccc(F)cc2)CC1
14.3%	55.6%	O=C1C=C(Nc2ccc(F)cc2)CCC1
